Test system: antigen specific cytokine producing cells in splenocytes
Assay: Imiquimod given with particle-mediated DNA vaccination (pVAC1.ova.cyt) of mice; cytokine producing splenocytes by ELISPOT
Assay type: in vivo, C57B1/6 mice
Details: imiquimod 30 mg/kg, single subcutaneous injection at the immunisation site, immediately following vaccination
Description: To examine whether the timing of imiquimod administration could affect the numbers of antigen specific cytokine producing cells in splenocytes pVAC1.ova.cyt (prepared according to example 1) was administered by particle mediated gene transfer (0.05 μg/cartridge) into the skin of mice.
If given, immediately following vaccination imiquimod (prepared as a suspension in vehicle which comprised 0.3% (w/v) methylcellulose and 0.1% (v/v) Tween in sterile water) was administered by a single subcutaneous injection (0.05 ml/10 g body weight formulated to provide a dose of 30 mg/kg)) at the immunisation site. Plasmid and imiquimod controls were empty vector (pVAC1) and vehicle, respectively.
All mice received pVAC1. ova.cyt or empty vehicle pVAC1 at day 0 and week 4. One group of mice received imiquimod at day 0 only (Im prime), a second group of mice received imiquimod at week 4 only (Im boost) and another group received imiquimod at day 0 and week 4 (Im pr+boost).
At day 12 spl enocytes were collected and IFN-γ and IL-2 producing cells were measured by ELISPOT.

CC(C)Cn1cnc2c(N)nc3ccccc3c21 [Imiquimod, imiquimod]
Magnitude of the cytotoxic T cell response to a nucleic acid vaccine: Increases the Magnitude of the Cytotoxic T Cell Response
